According to PubChem BioAssay AID328 (DTP/NCI, 2004):
Where “and” joins values, the source holds several entries; their conditions need not be identical. Equal entries are not always repeated. Inconclusive results and toxic doses are left out. The calls were made as follows: active = survival T/C of 150% or more; inactive = T/C below 125% in these data.

Tested on: BDF1 mice, P388 leukemia ip, median survival T/C
Assay: NCI In Vivo Anticancer Drug Screen. Data for tumor model P388 Leukemia (intraperitoneal) in B6D2F1 (BDF1) mice
Settings: endpoint: median survival time, higher = longer survival
Summary of the method: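 In tumour-bearing mice, survival after compound treatment is set against the vehicle group and given as a quotient.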

[1] = dose: 50.0 mg/kg/injection, schedule: Q01DX009 (ip), vehicle: saline with Tween-80
[2] = dose: 100.0 mg/kg/injection, schedule: Q01DX009 (ip), vehicle: saline with Tween-80
[3] = dose: 200.0 mg/kg/injection, schedule: Q01DX009 (ip), vehicle: saline with Tween-80
[4] = dose: 50.0 mg/kg/injection, schedule: Q01DX009 (ip), vehicle: Klucel (hydroxypropylcellulose) (HPC)
[5] = dose: 100.0 mg/kg/injection, schedule: Q01DX009 (ip), vehicle: Klucel (hydroxypropylcellulose) (HPC)
[6] = dose: 100.0 mg/kg/injection, schedule: Q04DX003 (ip), vehicle: Klucel (hydroxypropylcellulose) (HPC)
[7] = dose: 200.0 mg/kg/injection, schedule: Q04DX003 (ip), vehicle: Klucel (hydroxypropylcellulose) (HPC)
[8] = dose: 100.0 mg/kg/injection, schedule: Q01DX009 (ip), vehicle: saline
[9] = dose: 100.0 mg/kg/injection, schedule: Q04DX003 (ip), vehicle: saline with Tween-80
[10] = dose: 200.0 mg/kg/injection, schedule: Q04DX003 (ip), vehicle: saline with Tween-80
[11] = dose: 400.0 mg/kg/injection, schedule: Q04DX003 (ip), vehicle: saline with Tween-80
[12] = dose: 400.0 mg/kg/injection, schedule: Q04DX003 (ip), vehicle: Klucel (hydroxypropylcellulose) (HPC)
[13] = dose: 12.5 mg/kg/injection, schedule: Q01DX009 (ip), vehicle: saline with Tween-80
[14] = dose: 25.0 mg/kg/injection, schedule: Q01DX009 (ip), vehicle: saline with Tween-80
[15] = dose: 6.25 mg/kg/injection, schedule: Q01DX009 (ip), vehicle: saline with Tween-80
[16] = dose: 200.0 mg/kg/injection, schedule: Q01DX009 (ip), vehicle: Klucel (hydroxypropylcellulose) (HPC)
[17] = dose: 400.0 mg/kg/injection, schedule: Q01DX009 (ip), vehicle: Klucel (hydroxypropylcellulose) (HPC)

Measured: T/C

OC1CCCCC2CC12 (configuration not stated)
inactive: [1] 101 % of control | [2] 101 % of control | [3] 102 % of control

CCN(CC)CCCC(C)Nc1c2ccccc2nc2c(Cl)cccc12 (configuration not stated)
inactive: dose: 25.0 mg/kg/injection, schedule: Q01DX009 (ip), vehicle: saline sonified 88 % of control | dose: 50.0 mg/kg/injection, schedule: Q01DX009 (ip), vehicle: saline sonified 94 % of control

ClC[P+](c1ccccc1)(c1ccccc1)c1ccccc1
inactive: dose: 3.0 mg/kg/injection, schedule: Q01DX009 (ip), vehicle: saline 120 % of control | dose: 6.0 mg/kg/injection, schedule: Q01DX009 (ip), vehicle: saline 116 % of control | dose: 12.5 mg/kg/injection, schedule: Q04DX003 (ip), vehicle: saline 100 % of control

Cc1cccc(-c2nc3cc(Cl)ccc3c(=O)o2)c1
inactive: [4] 104 % of control | dose: 50.0 mg/kg/injection, schedule: Q04DX003 (ip), vehicle: Klucel (hydroxypropylcellulose) (HPC) 95 % of control | [5] 109 % of control | [6] 100 % of control | [7] 95 % of control

CSCCC(NC(C)=O)C(=O)O (configuration not stated)
inactive: [8] 96 % of control | dose: 100.0 mg/kg/injection, schedule: Q04DX003 (ip), vehicle: saline 87 % of control | dose: 200.0 mg/kg/injection, schedule: Q01DX009 (ip), vehicle: saline 88 % of control | dose: 200.0 mg/kg/injection, schedule: Q04DX003 (ip), vehicle: saline 87 % of control | dose: 400.0 mg/kg/injection, schedule: Q04DX003 (ip), vehicle: saline 91 % of control

Cc1ccc(S(=O)(=O)CC([Se]C#N)c2ccccc2)cc1 (configuration not stated)
inactive: [9] 105 % of control | [10] 92 % of control | [11] 89 % of control

CCC(C)OP1(=S)OCC(C)O1 (configuration not stated)
inactive: dose: 100.0 mg/kg/injection, schedule: Q04DX002 (ip), vehicle: saline with Tween-80 115 % of control | dose: 200.0 mg/kg/injection, schedule: Q04DX002 (ip), vehicle: saline with Tween-80 106 % of control | dose: 400.0 mg/kg/injection, schedule: Q04DX002 (ip), vehicle: saline with Tween-80 118 % of control

O=C1c2c(Cl)cccc2C(O)(c2ccccc2)c2cccc(Cl)c21
inactive: dose: 50.0 mg/kg/injection, schedule: Q01DX009 (ip), vehicle: other 100 % of control | dose: 100.0 mg/kg/injection, schedule: Q01DX009 (ip), vehicle: other 92 % of control | dose: 200.0 mg/kg/injection, schedule: Q01DX009 (ip), vehicle: other 105 % of control

CCCCN(C(=O)C(F)(F)F)C(C)(C)C(SSSC(c1cccs1)C(C)(C)N(CCCC)C(=O)C(F)(F)F)c1cccs1 (configuration not stated)
inactive: [9] 109 % of control

CC[C@H](CC[C@@H](C)[C@H]1CC[C@H]2[C@@H]3CC=C4C[C@@H](O)CC[C@]4(C)[C@H]3CC[C@]12C)C(C)C
inactive: [6] 100 % of control | [7] 86 % of control | [12] 100 % of control

CO/N=C1\CC(C)N2C(=O)C(C(C)C)NC(=O)C(NC(=O)c3c4nc5c(C(=O)NC6C(=O)NC(C(C)C)C(=O)N7C(C)CC(O)C7C(=O)N(C)CC(=O)N(C)C(C(C)C)C(=O)OC6C)ccc(C)c5oc-4c(C)c(=O)c3N)C(CO)OC(=O)C(C)N(C)C(=O)CN(C)C(=O)C12 (configuration not stated)
inactive: dose: 0.05 mg/kg/injection, schedule: Q01DX009 (ip), vehicle: saline + alcohol 99 % of control | dose: 0.1 mg/kg/injection, schedule: Q01DX009 (ip), vehicle: saline + alcohol 100 % of control | dose: 0.15 mg/kg/injection, schedule: Q04DX003 (ip), vehicle: saline + alcohol 98 % of control | dose: 0.2 mg/kg/injection, schedule: Q01DX009 (ip), vehicle: saline + alcohol 102 % of control | dose: 0.3 mg/kg/injection, schedule: Q04DX003 (ip), vehicle: saline + alcohol 100 % of control | dose: 0.4 mg/kg/injection, schedule: Q01DX001 (ip), vehicle: saline + alcohol 92 % of control | dose: 0.6 mg/kg/injection, schedule: Q04DX003 (ip), vehicle: saline + alcohol 105 % of control | dose: 0.8 mg/kg/injection, schedule: Q01DX001 (ip), vehicle: saline + alcohol 110 % of control | dose: 1.2 mg/kg/injection, schedule: Q04DX003 (ip), vehicle: saline + alcohol 107 % of control | dose: 1.6 mg/kg/injection, schedule: Q01DX001 (ip), vehicle: saline + alcohol 110 % of control | dose: 2.4 mg/kg/injection, schedule: Q04DX003 (ip), vehicle: saline + alcohol 115 % of control | dose: 3.2 mg/kg/injection, schedule: Q01DX001 (ip), vehicle: saline + alcohol 118 % of control

CCOP(=O)(C/C(=N\Nc1ccc([N+](=O)[O-])cc1[N+](=O)[O-])c1ccccc1)c1ccccc1 (configuration not stated)
inactive: dose: 25.0 mg/kg/injection, schedule: Q01DX001 (ip), vehicle: saline with Tween-80 100 % of control | dose: 50.0 mg/kg/injection, schedule: Q01DX001 (ip), vehicle: saline with Tween-80 104 % of control | dose: 100.0 mg/kg/injection, schedule: Q01DX001 (ip), vehicle: saline with Tween-80 95 % of control

[O-][Cl+3]([O-])([O-])O.[O-][n+]1c2ccccc2nc2ccccc21.[Zn+2]
inactive: [1] 123 % of control

C1CN2CCC1CC2
inactive: [13] 107 % of control | dose: 22.0 mg/kg/injection, schedule: Q01DX009 (ip), vehicle: saline with Tween-80 101 % of control | [14] 119 % of control | dose: 33.0 mg/kg/injection, schedule: Q01DX009 (ip), vehicle: saline with Tween-80 122 % of control

O=C(C=C(C(F)(F)F)C(F)(F)F)c1cccc(C(F)(F)F)c1
inactive: [15] 110 % of control | [13] 120 % of control | dose: 12.5 mg/kg/injection, schedule: Q04DX003 (ip), vehicle: saline with Tween-80 122 % of control | [14] 110 % of control | dose: 25.0 mg/kg/injection, schedule: Q04DX003 (ip), vehicle: saline with Tween-80 122 % of control

O=C(Nc1ccccc1)N(C(=O)C(F)(F)F)c1ccccc1
inactive: [1] 95 % of control | [2] 92 % of control | [3] 90 % of control

CCOC(=O)Cc1csc(NN=C(C)C)n1
inactive: dose: 50.0 mg/kg/injection, schedule: Q01DX009 (ip), vehicle: saline 108 % of control | [8] 110 % of control

CC(=O)C(C(c1ccccc1)C1CCCc2ccccc21)N1CCOCC1 (configuration not stated)
inactive: [5] 100 % of control | [6] 105 % of control | [16] 109 % of control | [7] 100 % of control | [17] 104 % of control | [12] 100 % of control

CCOC(=O)C(C#N)C(C)CC (configuration not stated)
inactive: dose: 25.0 mg/kg/injection, schedule: Q01DX009 (ip), vehicle: Klucel (hydroxypropylcellulose) (HPC) 90 % of control | [4] 104 % of control | [5] 100 % of control | [6] 87 % of control | [16] 95 % of control | [7] 104 % of control | [17] 90 % of control | [12] 95 % of control

Cc1ccc(NC(=O)OCCOc2ccc(-c3ccccc3)cc2)c([N+](=O)[O-])c1
inactive: dose: 12.5 mg/kg/injection, schedule: Q01DX009 (ip), vehicle: DMSO 100 % of control | dose: 25.0 mg/kg/injection, schedule: Q01DX009 (ip), vehicle: DMSO 119 % of control | dose: 50.0 mg/kg/injection, schedule: Q01DX009 (ip), vehicle: DMSO 102 % of control

CCOC(=O)CCCN(c1sc(C)c(C)c1C(=O)OCC)S(=O)(=O)c1ccc(C)cc1
inactive: [14] 104 % of control | [1] 109 % of control | dose: 50.0 mg/kg/injection, schedule: Q04DX003 (ip), vehicle: saline with Tween-80 91 % of control | [2] 104 % of control | [9] 87 % of control | [3] 95 % of control | [10] 95 % of control | [11] 87 % of control

CC12CCC(c3sc(N)c(C#N)c31)C2(C)C (configuration not stated)
inactive: dose: 1.56 mg/kg/injection, schedule: Q01DX009 (ip), vehicle: saline with Tween-80 88 % of control | dose: 3.13 mg/kg/injection, schedule: Q01DX009 (ip), vehicle: saline with Tween-80 102 % of control | [15] 104 % of control | [13] 104 % of control and 121 % of control | [14] 104 % of control | [1] 118 % of control
